In this experiment the test system is L1210 leukemia ip in BDF1 mice, survival T/C. Kind of experiment: NCI In Vivo Anticancer Drug Screen. Data for tumor model L1210 Leukemia (intraperitoneal) in B6D2F1 (BDF1) mice. Conditions: higher = longer survival. The method, boiled down: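 Value reflects the ratio of survival in compound-treated mice to survival in vehicle-treated controls, with both groups carrying the same transplanted tumor.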

Values joined by “and” are separate entries in the source; they are usually repeats but may differ in a detail not shown here. Identical values can stand only once. Inconclusive results and toxic doses are left out.

For `O=C1C=CN(C2OC(CO)C(O)C2O)C(=O)C1` (stereo not given), the T/C reads like this: (endpoint: mean survival time, dose: 0.75 mg/kg/injection, schedule: Q01DX009 (ip), vehicle: saline) 117 % of control; (endpoint: mean survival time, dose: 1.5 mg/kg/injection, schedule: Q01DX009 (ip), vehicle: saline) 117 % of control; (endpoint: mean survival time, dose: 4.8 mg/kg/injection, schedule: Q01DX009 (ip), vehicle: saline) 120 % of control; (endpoint: mean survival time, dose: 7.8 mg/kg/injection, schedule: Q01DX005 (ip), vehicle: other) 107 % of control; (endpoint: mean survival time, dose: 15.75 mg/kg/injection, schedule: Q01DX005 (ip), vehicle: other) 116 % of control; (endpoint: mean survival time, dose: 22.0 mg/kg/injection, schedule: Q01DX009 (ip), vehicle: saline) 124 % of control. The T/C is 123 % of control (endpoint: mean survival time, dose: 31.25 mg/kg/injection, schedule: Q01DX005 (ip), vehicle: other); 124 % of control (endpoint: mean survival time, dose: 62.5 mg/kg/injection, schedule: Q01DX005 (ip), vehicle: other); 105 % of control (endpoint: mean survival time, dose: 100.0 mg/kg/injection, schedule: Q01DX001 (ip), vehicle: saline); 108 % of control (endpoint: mean survival time, dose: 100.0 mg/kg/injection, schedule: Q04DX003 (ip), vehicle: saline); 176 % of control (endpoint: mean survival time, dose: 112.0 mg/kg/injection, schedule: Q03HX024 (ip), vehicle: saline); 114 % of control (endpoint: mean survival time, dose: 200.0 mg/kg/injection, schedule: Q01DX001 (ip), vehicle: saline). In addition, the T/C runs as follows: (endpoint: mean survival time, dose: 200.0 mg/kg/injection, schedule: Q04DX003 (ip), vehicle: saline) 119 % of control; (endpoint: mean survival time, dose: 400.0 mg/kg/injection, schedule: Q01DX001 (ip), vehicle: saline) 105 % of control; (endpoint: mean survival time, dose: 400.0 mg/kg/injection, schedule: Q01DX009 (ip), vehicle: saline) 115 % of control; (endpoint: mean survival time, dose: 400.0 mg/kg/injection, schedule: Q04DX003 (ip), vehicle: saline) 116 % of control; (endpoint: median survival time, dose: 6.25 mg/kg/injection, schedule: Q01DX009 (ip), vehicle: saline) 122 % of control; (endpoint: median survival time, dose: 12.5 mg/kg/injection, schedule: Q01DX009 (ip), vehicle: saline) 122 % of control. Further, the T/C is 105 % of control (endpoint: median survival time, dose: 16.0 mg/kg/injection, schedule: Q03HX008 (ip), vehicle: saline); 103 % of control (endpoint: median survival time, dose: 16.0 mg/kg/injection, schedule: Q03HX016 (ip), vehicle: saline); 150 % of control (endpoint: median survival time, dose: 26.0 mg/kg/injection, schedule: Q03HX024 (ip), vehicle: saline); 118 % of control (endpoint: median survival time, dose: 32.0 mg/kg/injection, schedule: Q01DX009 (sc), vehicle: saline); 106 % of control (endpoint: median survival time, dose: 32.0 mg/kg/injection, schedule: Q03HX008 (ip), vehicle: saline); 101 % of control (endpoint: median survival time, dose: 32.0 mg/kg/injection, schedule: Q03HX016 (ip), vehicle: saline). The T/C (endpoint: median survival time, dose: 64.0 mg/kg/injection, schedule: Q01DX009 (sc), vehicle: saline) is 123 % of control; the T/C (endpoint: median survival time, dose: 64.0 mg/kg/injection, schedule: Q03HX008 (ip), vehicle: saline) was 103 % of control; the T/C (endpoint: median survival time, dose: 64.0 mg/kg/injection, schedule: Q03HX016 (ip), vehicle: saline) was 103 % of control; the T/C (endpoint: median survival time, dose: 64.0 mg/kg/injection, schedule: Q04DX003 (ip), vehicle: saline) is 103 % of control; the T/C (endpoint: median survival time, dose: 74.0 mg/kg/injection, schedule: Q01DX009 (oral), vehicle: saline) was 116 % of control; the T/C (endpoint: median survival time, dose: 110.0 mg/kg/injection, schedule: Q01DX009 (oral), vehicle: saline) is 100 % of control. Further, the T/C (endpoint: median survival time, dose: 128.0 mg/kg/injection, schedule: Q01DX001 (ip), vehicle: saline) was 98 % of control; the T/C (endpoint: median survival time, dose: 128.0 mg/kg/injection, schedule: Q01DX009 (ip), vehicle: saline) is 156 % of control; the T/C (endpoint: median survival time, dose: 128.0 mg/kg/injection, schedule: Q01DX009 (oral), vehicle: saline) is 111 % of control; the T/C (endpoint: median survival time, dose: 128.0 mg/kg/injection, schedule: Q03HX008 (ip), vehicle: saline) was 108 % of control; the T/C (endpoint: median survival time, dose: 128.0 mg/kg/injection, schedule: Q03HX016 (ip), vehicle: saline) was 110 % of control; the T/C (endpoint: median survival time, dose: 128.0 mg/kg/injection, schedule: Q04DX003 (ip), vehicle: saline) is 104 % of control. For the same molecule, the T/C (endpoint: median survival time, dose: 128.0 mg/kg/injection, schedule: Q04DX003 (oral), vehicle: saline) was 104 % of control and 110 % of control; the T/C (endpoint: median survival time, dose: 128.0 mg/kg/injection, schedule: Q04DX003 (sc), vehicle: saline) is 112 % of control; the T/C (endpoint: median survival time, dose: 128.0 mg/kg/injection, schedule: Q08DX002 (ip), vehicle: saline) was 94 % of control; the T/C (endpoint: median survival time, dose: 164.0 mg/kg/injection, schedule: Q01DX009 (oral), vehicle: saline) is 111 % of control; the T/C (endpoint: median survival time, dose: 170.0 mg/kg/injection, schedule: Q04DX003 (ip), vehicle: saline) is 111 % of control; the T/C (endpoint: median survival time, dose: 248.0 mg/kg/injection, schedule: Q01DX009 (oral), vehicle: saline) is 100 % of control. For the same molecule, the T/C runs as follows: (endpoint: median survival time, dose: 256.0 mg/kg/injection, schedule: Q01DX001 (ip), vehicle: saline) 105 % of control; (endpoint: median survival time, dose: 256.0 mg/kg/injection, schedule: Q01DX009 (ip), vehicle: saline) 180 % of control; (endpoint: median survival time, dose: 256.0 mg/kg/injection, schedule: Q01DX009 (oral), vehicle: saline) 107 % of control and 110 % of control; (endpoint: median survival time, dose: 256.0 mg/kg/injection, schedule: Q03HX008 (ip), vehicle: saline) 116 % of control; (endpoint: median survival time, dose: 256.0 mg/kg/injection, schedule: Q03HX016 (ip), vehicle: saline) 122 % of control; (endpoint: median survival time, dose: 256.0 mg/kg/injection, schedule: Q04DX003 (ip), vehicle: saline) 112 % of control. Besides, the T/C by setting is: (endpoint: median survival time, dose: 256.0 mg/kg/injection, schedule: Q04DX003 (oral), vehicle: saline) 117 % of control and 123 % of control; (endpoint: median survival time, dose: 256.0 mg/kg/injection, schedule: Q04DX003 (sc), vehicle: saline) 120 % of control; (endpoint: median survival time, dose: 256.0 mg/kg/injection, schedule: Q08DX002 (ip), vehicle: saline) 97 % of control; (endpoint: median survival time, dose: 260.0 mg/kg/injection, schedule: Q04DX003 (ip), vehicle: saline) 111 % of control; (endpoint: median survival time, dose: 400.0 mg/kg/injection, schedule: Q01DX009 (ip), vehicle: saline) 155 % of control; (endpoint: median survival time, dose: 512.0 mg/kg/injection, schedule: Q01DX001 (ip), vehicle: saline) 100 % of control. The T/C is 97 % of control and 100 % of control (endpoint: median survival time, dose: 512.0 mg/kg/injection, schedule: Q01DX009 (oral), vehicle: saline); 122 % of control (endpoint: median survival time, dose: 512.0 mg/kg/injection, schedule: Q04DX003 (ip), vehicle: saline); 105 % of control (endpoint: median survival time, dose: 512.0 mg/kg/injection, schedule: Q04DX003 (oral), vehicle: saline); 119 % of control (endpoint: median survival time, dose: 512.0 mg/kg/injection, schedule: Q04DX003 (sc), vehicle: saline); 95 % of control (endpoint: median survival time, dose: 512.0 mg/kg/injection, schedule: Q08DX002 (ip), vehicle: saline); 111 % of control (endpoint: median survival time, dose: 580.0 mg/kg/injection, schedule: Q04DX003 (ip), vehicle: saline). The T/C was 110 % of control (endpoint: median survival time, dose: 600.0 mg/kg/injection, schedule: Q01DX009 (ip), vehicle: saline); 101 % of control (endpoint: median survival time, dose: 1024.0 mg/kg/injection, schedule: Q01DX001 (ip), vehicle: saline); 95 % of control (endpoint: median survival time, dose: 1024.0 mg/kg/injection, schedule: Q01DX009 (oral), vehicle: saline); 106 % of control (endpoint: median survival time, dose: 1024.0 mg/kg/injection, schedule: Q08DX002 (ip), vehicle: saline); 111 % of control (endpoint: median survival time, dose: 2048.0 mg/kg/injection, schedule: Q01DX001 (ip), vehicle: saline); 119 % of control (endpoint: median survival time, dose: 2048.0 mg/kg/injection, schedule: Q08DX002 (ip), vehicle: saline).
Consider `CCCCCCCCOC(=O)CC`, for which the T/C is, setting by setting: (endpoint: mean survival time, dose: 100.0 mg/kg/injection, schedule: Q04DX002 (ip), vehicle: saline) 111 % of control; (endpoint: mean survival time, dose: 200.0 mg/kg/injection, schedule: Q04DX002 (ip), vehicle: saline) 107 % of control; (endpoint: mean survival time, dose: 400.0 mg/kg/injection, schedule: Q04DX002 (ip), vehicle: saline) 100 % of control.
As for `O=C([O][Bi]([c]1ccccc1)[c]1ccccc1)C(F)(F)F`, the T/C is 95 % of control (endpoint: mean survival time, dose: 100.0 mg/kg/injection, schedule: Q04DX002 (ip), vehicle: saline with Tween-80); 95 % of control (endpoint: mean survival time, dose: 200.0 mg/kg/injection, schedule: Q04DX002 (ip), vehicle: saline with Tween-80); 92 % of control (endpoint: mean survival time, dose: 400.0 mg/kg/injection, schedule: Q04DX002 (ip), vehicle: saline with Tween-80).
On to `CCOC=Nc1c(N)ncnc1Cl`, for which the T/C was 93 % of control (endpoint: mean survival time, dose: 125.0 mg/kg/injection, schedule: Q01DX Z (ip), vehicle: other); 93 % of control (endpoint: mean survival time, dose: 250.0 mg/kg/injection, schedule: Q01DX Z (ip), vehicle: other); 103 % of control (endpoint: mean survival time, dose: 500.0 mg/kg/injection, schedule: Q01DX Z (ip), vehicle: other).
